≈ marks a conversion by molar mass, not a printed value. Entries after “also recorded” stand apart in the source; their conditions may differ. Counter-ions that a name gives are not always drawn. Like-named read-outs stand apart in the source and are kept apart here. Blank lines part the entries; values can stand above or below the compound they belong to.
Columns and labels:
[1] = system: Pseudomonas aeruginosa; assay: MIC testing, Pseudomonas aeruginosa isolates non-susceptible to cefepime; assay type: cell-based; settings: for % S@8: 554 isolates non-susceptible to cefepime; for MIC50 / MIC90: Pseudomonas aeruginosa
[2] = Stability of aqueous solutions of combination formulation at pH 5.0; assay type: physicochemical; settings: pH 5.0 at 25° C.
[3] = system: Pseudomonas aeruginosa; assay: MIC testing, Pseudomonas aeruginosa isolates non-susceptible to meropenem; assay type: cell-based; settings: for % S@8: 507 isolates non-susceptible to meropenem; for MIC50 / MIC90: Pseudomonas aeruginosa
[4] = system: Stenotrophomonas maltophilia; assay: MIC testing, Stenotrophomonas maltophilia; assay type: cell-based; settings: for MIC50 / MIC90: Stenotrophomonas maltophilia
Excerpt: Stenotrophomonas maltophilia is a Gram negative bacillus. It is an opportunistic MDR pathogen. It has been linked to infections with high morbidity and mortality in severely immunocompromised and debilitated individuals.

[5] = system: Elizabethkingia meningoseptica; assay: MIC testing, Elizabethkingia meningoseptica; assay type: cell-based; settings: for MIC90 / MIC50: Elizabethkingia meningoseptica
[6] = Solubility of Compound 1-dihydrochloride in IPA/water mixtures; assay type: physicochemical; settings: IPA/water mixture, aqueous with cosolvent or surfactant or cyclodextrin, thermodynamic from solid
Description: In order to design a re-crystallization process for Compound 1-dihydrochloride salt from water as solvent and IPA as anti-solvent, the solubility of the API in these combinations were determined. Suspensions in various water/IPA mixtures were prepared and incubated for 24 hours at 5°, 25°, 40° and 50° C. Upon completion of the incubation time the solids were separated from the mother liquors by centrifugation and filtration and the concentration of Compound 1 in solution was determined by HPLC analysis. The remaining solids were analyzed by HT-XRPD.

[7] = Physical stability of Compound 1-dihydrochloride at four temperature/RH conditions; assay type: physicochemical
Description: A physical stability study of Compound 1-dihydrochloride (mixture of Form 1 and Form 2) was conducted. A solid sample of Compound 1-dihydrochloride was incubated under four relative humidity and temperature conditions: 5° C./ambient RH, 25° C./60% RH, 30° C./65% RH and 40° C./75% RH. At regular intervals, the compound was analyzed by HR-XRPD and TGMS. […] The water content is in line with the monohydrate nature of Compound 1-dihydrochloride Form 1. The TGMS analyses recorded for the 2 weeks and 1-month incubation is also along the 3.8% of water (1 molecule of water per molecule of API).

[8] = Polymorph and hydrate screen: physical stability of solid forms (AAC, drying); assay type: physicochemical; settings: 40° C. and 75% RH for 2 days
Description: The solids obtained from the various crystallization experiments were analyzed by High Throughput XRPD (HT-XRPD). If relevant, the mother liquors were allowed to evaporate completely, and the remaining solids were analyzed by HT-XRPD. Subsequently, all solids were exposed to accelerated aging conditions for 48 hours at 40° C. and 75% RH (AAC).
From the polymorph screen, four novel diffractograms were identified in addition to the two known forms of Compound 1-dihydrochloride, Form 1 and Form 2. Form 1 was the most abundant solid form found in this polymorph screen. The novel diffractograms were designated Forms 3, 4, 5 and 6. All these forms were found with low frequency and were poorly crystalline. […] The HT-XRPD patterns of the new Forms 3, 4, 5 and 6 are shown in FIG. 12, FIG. 13, FIG. 14, and FIG. 15, respectively.
After completion of the equilibration time, the remaining solids were analyzed by HT-XRPD dry under ambient conditions and dried under vacuum. The mother liquors were analyzed by Karl Fisher titration for water content determination. […] The solutions from these experiments were evaporated under vacuum (200 mBar) and the obtained dried solids analyzed by HT-XRPD. All the solids were then exposed to 40° C. and 75% RH for two days.

SMILES: C[C@@H](O)[C@H]1C(=O)N2C(C(=O)O)=C(S[C@@H]3CN[C@H](C(=O)N(C)C)C3)[C@H](C)[C@H]12 [Meropenem, meropenem]
% S@8 [1]: 36.6%
MIC50 [1]: 16 µg/mL (≈ 41.7 µM)
MIC90 ([1]; read-out: MIC90): > 128 µg/mL
% present, meropenem ([2]; 24 hours): 89%
% S@8 [3]: 0%
MIC50 [3]: 32 µg/mL (≈ 83.4 µM)
MIC90 ([3]; read-out: MIC90): > 128 µg/mL
% S [4]: 0%
MIC50 [4]: 128 µg/mL (≈ 334 µM)
MIC90 [4]: > 128 µg/mL
MIC90 [5]: 128 µg/mL (≈ 334 µM)
MIC50 ([5]; N=10 strains): 64 µg/mL (≈ 167 µM)
% S@8 ([5]; N=10 strains): 0%

solubility at 24 h ([6]; 5 °C, IPA/H2O (40:60), 5° C.): 271 mg/mL
solubility at 24 h ([6]; 5 °C, IPA/H2O (50:50), 5° C.): 217 mg/mL
solubility at 24 h ([6]; 5 °C, IPA/H2O (60:40), 5° C.): 129 mg/mL
solubility at 24 h ([6]; 5 °C, IPA/H2O (70:30), 5° C.): 78.6 mg/mL
solubility at 24 h ([6]; 5 °C, IPA/H2O (80:20), 5° C.): 28 mg/mL
solubility at 24 h ([6]; 5 °C, IPA/H2O (90:10), 5° C.): 4.2 mg/mL
solubility at 24 h ([6]; 25 °C, IPA/H2O (40:60), 25° C.): 429 mg/mL
solubility at 24 h ([6]; 25 °C, IPA/H2O (50:50), 25° C.): 336 mg/mL
solubility at 24 h ([6]; 25 °C, IPA/H2O (60:40), 25° C.): 205 mg/mL
solubility at 24 h ([6]; 25 °C, IPA/H2O (70:30), 25° C.): 101 mg/mL
solubility at 24 h ([6]; 25 °C, IPA/H2O (80:20), 25° C.): 41.7 mg/mL
solubility at 24 h ([6]; 25 °C, IPA/H2O (90:10), 25° C.): 4.2 mg/mL
solubility at 24 h ([6]; 40 °C, IPA/H2O (40:60), 40° C.): 567 mg/mL
solubility at 24 h ([6]; 40 °C, IPA/H2O (50:50), 40° C.): 454 mg/mL
solubility at 24 h ([6]; 40 °C, IPA/H2O (60:40), 40° C.): 424 mg/mL
solubility at 24 h ([6]; 40 °C, IPA/H2O (70:30), 40° C.): 189 mg/mL
solubility at 24 h ([6]; 40 °C, IPA/H2O (80:20), 40° C.): 81 mg/mL
solubility at 24 h ([6]; 40 °C, IPA/H2O (90:10), 40° C.): 5.6 mg/mL
solubility at 24 h ([6]; 50 °C, IPA/H2O (40:60), 50° C.): 714 mg/mL
solubility at 24 h ([6]; 50 °C, IPA/H2O (50:50), 50° C.): 528 mg/mL
solubility at 24 h ([6]; 50 °C, IPA/H2O (60:40), 50° C.): 440 mg/mL
solubility at 24 h ([6]; 50 °C, IPA/H2O (70:30), 50° C.): 235 mg/mL
solubility at 24 h ([6]; 50 °C, IPA/H2O (80:20), 50° C.): 102 mg/mL
solubility at 24 h ([6]; 50 °C, IPA/H2O (90:10), 50° C.): 7.2 mg/mL
Solid form after three days exposure ([7]; 5° C./ambient RH, 25° C./60% RH, 30° C./65% RH and 40° C./75% RH, HR-XRPD, starting mixture of Form 1 and Form 2): full conversion to Form 1
Solid form upon incubation for extended periods ([7]; same four conditions, at least up to 1 month): No significant changes in the solid form
SMILES: NCCN[C@H]1CC[C@H](CC(=O)N[C@H]2Cc3cccc(C(=O)O)c3OB2O)CC1 [Compound 1-dihydrochloride, (R)-3-(2-(trans-4-(2-aminoethylamino)cyclohexyl)acetamido)-2-hydroxy-3,4-dihydro-2H-benzo[e][1,2]oxaborinine-8-carboxylic acid dihydrochloride]

SMILES: NCCN[C@H]1CC[C@H](CC(=O)N[C@H]2Cc3cccc(C(=O)O)c3OB2O)CC1 [Form 6]
Physical stability upon exposure to AAC [8]: physically unstable; also recorded: conversion to Form 1 was observed; also recorded: converted to Form 1

SMILES: CO/N=C(\C(=O)N[C@@H]1C(=O)N2C(C(=O)[O-])=C(C[N+]3(C)CCCC3)CS[C@H]12)c1csc(N)n1 [Cefepime, cefepime]
% S@8 [1]: 0%
MIC50 [1]: 32 µg/mL (≈ 66.6 µM)
MIC90 [1]: 256 µg/mL (≈ 533 µM)
% present, cefepime ([2]; 20 hours): 99%
% S@8 [3]: 30.8%
MIC Range ([3]; 507 isolates non-susceptible to meropenem (MIC>8 μg/mL)): 1-128
MIC50 [3]: 32 µg/mL (≈ 66.6 µM)
MIC90 [3]: 256 µg/mL (≈ 533 µM)
% S [4]: 20%
MIC90 [4]: 64 µg/mL (≈ 133 µM)
MIC50 ([4]; read-out: MIC50): 32 µg/mL (≈ 66.6 µM)
MIC50 ([5]; N=10 strains): 16 µg/mL (≈ 33.3 µM)
MIC90 ([5]; N=10 strains, read-out: MIC90): 32 µg/mL (≈ 66.6 µM)
MIC Range ([5]; N=10 strains, in µg/mL): 16-32

Source: patent publication US12187752B2, “Solid forms and combination compositions comprising a beta-lactamase inhibitor and uses thereof” (priority 2017, dated 2025)
